Patent US11827628B2, “Compositions and methods for inhibition of the JAK pathway” (Rigel Pharmaceuticals, Inc., priority 2005, dated 2023)
Where two headings read alike, the source gives them in different places.

Columns and labels:
[1] = test system: IL-4 stimulated expression of CD23 in human Ramos B cells (JAK-1 and JAK-3); assay: Assay for Ramos B-Cell Line Stimulated with IL-4 (CD23 upregulation, FACS); format: cell-based; settings: read-out: IC50, Example 41
Procedure, shortened: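 Read-out: anti-CD23-PE flow cytometry on Ramos B cells, giving IC50. Cells (5×10^4 per point, RPMI + 5% serum) get compound or DMSO for 1 h at 37 °C, then IL-4 50 units/mL final for 20-24 h.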

[2] = test system: up-regulation of ICAM-1 (CD54) by IFNγ in U937 human monocytic cells; assay: U937 IFNγ ICAM1 FACS Assay; format: cell-based; settings: ICAM-1 expression by FACS, read-out: IC50, Example 44
Procedure, shortened: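 Readout was the geometric-mean APC anti-ICAM-1 signal by FACS on live U937 monocytic cells, with % live cells also recorded. Cells were exposed to compounds (8 points, 3-fold dilutions, duplicates) for 30 min at 37 °C before 18–24 h of IFNγ stimulation. EC50 values were computed from the dose curve.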

[3] = Homo sapiens, Ramos, Ramos B-cell line stimulated with IL-4, CD23 expression by FACS
[4] = Homo sapiens, U-937, U937 cells stimulated with IFNγ
[5] = Ramos B cells stimulated with IL-4, CD23 expression by FACS
[6] = U937 cells stimulated with IFNγ

IC50 [1, 3] [nM] | IC50 [2, 4] [nM] | IC50 [1, 5] [nM] | IC50 [2, 6] [nM] | IC50 ([1]; Homo sapiens, Ramos, Ramos B cells stimulated with IL-4, CD23 expression by FACS) [nM] | Compound
123 | 918 |  |  |  | Cc1nnc(COc2ccc(Nc3nc(Nc4ccc(C)c(S(N)(=O)=O)c4)ncc3F)cc2)o1 [Compound I-279, N2-(3-Aminosulfonyl-4-methylphenyl)-5-fluoro-N4-[4-(5-methyl-1,3,4-oxadiazol-2-yl)methoxyphenyl]-2,4-pyrimidinediamine]
118 | 65100 |  |  |  | CNC(=O)COc1ccc(Nc2nc(Nc3cccc(S(N)(=O)=O)c3)ncc2C)cc1F [Compound I-155, N2-(3-Aminosulfonylphenyl)-N4-(3-fluoro-4-methylaminocarbonylmethoxyphenyl)-5-methyl-2,4-pyrimidinediamine]
95.2 | 935 |  |  |  | Cc1ccc(Nc2ncc(F)c(Nc3ccc(Cc4ccncc4)cc3)n2)cc1S(N)(=O)=O [III-74, N2-(3-Aminosulfonyl-4-methylphenyl)-5-fluoro-N4-[4-(4-pyridinylmethyl)phenyl]-2,4-pyrimidinediamine]
145 | 3970 |  |  |  | Cc1cnc(Nc2ccc(S(N)(=O)=O)cc2)nc1Nc1ccc(OCC(N)=O)cc1 [Compound I-108, N4-(4-Aminocarbonylmethoxyphenyl)-N2-(4-aminosulfonylphenyl)-5-methyl-2,4-pyrimidinediamine]
 |  | 220 |  |  | N4-(3,4-Dichlorophenyl)-5-fluoro-N2-[3-(4-methylpipendin-1-yl)aminosulfonylphenyl]-2,4-pyrimidinediamine [VI-10]
141 | 2040 |  |  |  | Cc1ccc(Nc2ncc(F)c(NCCc3ccc(-n4ccnc4)cc3)n2)cc1S(N)(=O)=O [III-88, N2-(3-Aminosulfonyl-4-methylphenyl)-5-fluoro-N4-[4-(1-imidazolyl)phenethyl]-2,4-pyrimidinediamine]
351 | 2720 |  |  |  | CN(C)C(=O)COc1ccc(Nc2nc(Nc3cccc(S(N)(=O)=O)c3)ncc2F)cc1Cl [Compound I-132, N2-(3-Aminosulfonylphenyl)-N4-(3-chloro-4-dimethylaminocarbonylmethoxyphenyl)-5-fluoro-2,4-pyrimidinediamine]
113 | 751 |  |  |  | COc1cc(Nc2nc(Nc3cccc(S(N)(=O)=O)c3)ncc2F)ccc1OCC#N [Compound I-46, N2-(3-Aminosulfonylphenyl)-N4-(4-cyanomethoxy-3-methoxyphenyl)-5-fluoro-2,4-pyrimidinediamine]
 |  | 162 | 1910 |  | NS(=O)(=O)c1cccc(Nc2ncc(F)c(Nc3ccc(Cn4cncn4)cc3)n2)c1 [III-100, N2-(3-Aminosulfonylphenyl)-5-fluoro-N4-{4-[1-(1,2,4-thazolyl)methyl]phenyl}-2,4-pyrimidinediamine]
141 | 2950 |  |  |  | NS(=O)(=O)c1cccc(Nc2ncc(F)c(NCCc3ccc(-n4ccnc4)cc3)n2)c1 [III-87, N2-(3-Aminosulfonylphenyl)-5-fluoro-N4-[4-(1-imidazolyl)phenethyl]-2,4-pyrimidinediamine]
144 | 1630 |  |  |  | Cc1ccc(Nc2ncc(F)c(Nc3ccc(OC4CCN(C)CC4)cc3)n2)cc1S(N)(=O)=O [II-7, N2-(3-Aminosulfonyl-4-methylphenyl)-5-fluoro-N4-{4-[(1-methylpiperidin-4-yl)oxy]phenyl}-2,4-pyrimidinediamine]
132 | 1640 |  |  |  | Cc1ccc(Nc2ncc(C)c(Nc3ccc(OCC(=O)N(C)C)c(Cl)c3)n2)cc1S(N)(=O)=O [Compound I-136, N2-(3-Aminosulfonyl-4-methylphenyl)-N4-(3-chloro-4-dimethylaminocarbonylmethoxyphenyl)-5-methyl-2,4-pyrimidinediamine]
135 | 1590 |  |  |  | NC(=O)OCCc1ccc(Nc2nc(Nc3cccc(S(N)(=O)=O)c3)ncc2F)cc1 [III-54, N4-{4-[2-(Aminocarbonyloxy)ethyl]phenyl}-N2-(3-aminosulfonylphenyl)-5-fluoro-2,4-pyrimidinediamine]
30.3 | 339 |  |  |  | Cc1ccc(Nc2ncc(F)c(Nc3ccc(CCC#N)c(Cl)c3)n2)cc1S(N)(=O)=O [III-21, N2-(3-Aminosulfonyl-4-methylphenyl)-N4-[3-chloro-4-(2-cyanoethyl)phenyl]-5-fluoro-2,4-pyrimidinediamine]
295 | 11000 |  |  |  | NC(=O)COc1ccc(Nc2nc(Nc3cccc(S(N)(=O)=O)c3)ncc2F)cc1Cl [Compound I-98, N4-(4-Aminocarbonylmethoxy-3-chlorophenyl)-N2-(3-aminosulfonylphenyl)-5-fluoro-2,4-pyrimidinediamine]
265 | 3130 |  |  |  | Cc1ccc(Nc2nc(Nc3cccc(S(N)(=O)=O)c3)ncc2F)cc1OCCN1CCOCC1 [Compound I-203, N2-(3-Aminosulfonylphenyl)-5-fluoro-N4-[4-methyl-3-(2-morpholinoethyloxy)phenyl]-2,4-pyrimidinediamine]
53.6 | 838 |  |  |  | CN(C)C(=O)OCCc1ccc(Nc2nc(Nc3cccc(S(N)(=O)=O)c3)ncc2F)cc1 [III-57, N2-(3-Aminosulfonylphenyl)-N4-{4-[2-(dimethylaminocarbonyloxy)ethyl]phenyl}-5-fluoro-2,4-pyrimidinediamine]
5.05 | 66 |  |  |  | Cc1cnc(Nc2cccc(S(N)(=O)=O)c2)nc1Nc1ccc(OCC#N)cc1 [Compound I-58, N2-(3-Aminosulfonylphenyl)-N4-(4-cyanomethoxyphenyl)-5-methyl-2,4-pyrimidinediamine]
219 | 15600 |  |  |  | Cc1ccc(Nc2ncc(F)c(Nc3ccc(OCC(N)=O)c(F)c3)n2)cc1S(N)(=O)=O [Compound I-102, N4-(4-Aminocarbonylmethoxy-3-fluorophenyl)-N2-(3-aminosulfonyl-4-methylphenyl)-5-fluoro-2,4-pyrimidinediamine]
212 | 27400 |  |  |  | NC(=O)COc1ccc(Nc2nc(Nc3ccc(S(N)(=O)=O)cc3)ncc2F)cc1Cl [Compound I-97, N4-(4-Aminocarbonylmethoxy-3-chlorophenyl)-N2-(4-aminosulfonylphenyl)-5-fluoro-2,4-pyrimidinediamine]
53.2 | 5070 |  |  |  | N#CCOc1ccc(Nc2nc(Nc3ccc(S(N)(=O)=O)cc3)ncc2F)cc1F [Compound I-44, N2-(4-Aminosulfonylphenyl)-N4-(4-cyanomethoxy-3-fluorophenyl)-5-fluoro-2,4-pyrimidinediamine]
 |  | 112 | 1240 |  | CNS(=O)(=O)c1cc(Nc2ncc(F)c(Nc3ccc(-c4cnco4)cc3)n2)ccc1C [IV-7, 5-Fluoro-N2-[3-(N-methylaminosulfony)-4-methylphenyl]-N4-[4-(1,3-oxazol-5-yl)phenyl]-2,4-pyrimidinediamine]
104 | 3640 |  |  |  | COc1cc(Nc2nc(Nc3ccc(S(N)(=O)=O)cc3)ncc2F)ccc1OCC#N [Compound I-45, N2-(4-Aminosulfonylphenyl)-N4-(4-cyanomethoxy-3-methoxyphenyl)-5-fluoro-2,4-pyrimidinediamine]
97.7 | 1130 |  |  |  | Cc1ccc(Nc2ncc(F)c(Nc3ccc(CCOC(N)=O)cc3)n2)cc1S(N)(=O)=O [III-53, N4-{4-[2-(Aminocarbonyloxy)ethyl]phenyl}-N2-(3-aminosulfonyl-4-methylphenyl)-5-fluoro-2,4-pyrimidinediamine]
104 | 447 |  |  |  | NS(=O)(=O)c1cccc(Nc2ncc(F)c(NCCc3ccc(-c4ccncc4)cc3)n2)c1 [III-76, N2-(3-Aminosulfonylphenyl)-5-fluoro-N4-[4-(4-pyridinyl)phenethyl]-2,4-pyrimidinediamine]
68.6 | 3780 |  |  |  | Cc1ccc(Nc2ncc(F)c(Nc3ccc(OCC(N)=O)c(Cl)c3)n2)cc1S(N)(=O)=O [Compound I-99, N4-(4-Aminocarbonylmethoxy-3-chlorophenyl)-N2-(3-aminosulfonyl-4-methylphenyl)-5-fluoro-2,4-pyrimidinediamine]
162 |  |  |  |  | Cc1cnc(Nc2ccc(Cl)c(S(N)(=O)=O)c2)nc1Nc1ccc(OCC(=O)N(C)C)c(Cl)c1 [Compound I-141, N2-(3-Aminosulfonyl-4-chlorophenyl)-N4-(3-chloro-4-dimethylaminocarbonylmethoxyphenyl)-5-methyl-2,4-pyrimidinediamine]
 |  |  |  | 258 | COC(=O)c1ccc(Nc2nc(Nc3ccc(F)c(S(N)(=O)=O)c3)ncc2F)s1 [IX-48, N2-(3-Aminosulfonyl-4-fluorophenyl)-5-fluoro-N4-(5-methoxycarbonyl-thiophene-2-yl)-2,4-pyrimidinediamine]
 |  | 108 |  |  | COc1ccc(CN2C(=O)C(C)Oc3ccc(Nc4nc(Nc5ccc(S(N)(=O)=O)cc5)ncc4F)cc32)cc1 (racemic) [Compound V-4, Racemic N2-(4-Aminosulphonylphenyl)-5-fluoro-N4-[2-methyl-3-oxo-4-(4-methoxybenzyl)-benz[1,4]oxazin-6-yl]-2,4-pyrimidinediamine]
315 |  |  |  |  | NS(=O)(=O)c1ccc(Nc2ncc(F)c(Nc3ccc(OCCN4CCOCC4)cc3)n2)cc1 [Compound I-205, N2-(4-Aminosulfonylphenyl)-5-fluoro-N4-[4-(2-morpholinoethyloxy)phenyl)-2,4-pyrimidinediamine]
